Measurements published in the NIST ThermoML archive (doi:10.1016/j.jct.2016.03.003).

Test: mn = molality of the nth substance listed, in mol/kg
Details: 101.3 kPa, Liquid, Vibrating tube method

C[C@H](O)C(=O)[O-].C[C@H](O)C(=O)[O-].C[C@H](O)C(=O)[O-].[Al+3] [aluminium L-lactate] + O
Details | mass density [kg/m3]
278.15 K, m1 = 0.0016 | 1000.31
278.15 K, m1 = 0.0033 | 1000.54
278.15 K, m1 = 0.0065 | 1000.95
278.15 K, m1 = 0.016 | 1002.1
278.15 K, m1 = 0.0281 | 1003.54
278.15 K, m1 = 0.0521 | 1006.26
278.15 K, m1 = 0.0995 | 1011.5
278.15 K, m1 = 0.1996 | 1022.22
278.15 K, m1 = 0.3045 | 1032.98
278.15 K, m1 = 0.4021 | 1042.51
278.15 K, m1 = 0.5059 | 1052.17
278.15 K, m1 = 0.5991 | 1060.59
278.15 K, m1 = 0.7147 | 1070.67
283.15 K, m1 = 0.0016 | 1000.07
283.15 K, m1 = 0.0033 | 1000.29
283.15 K, m1 = 0.0065 | 1000.7
283.15 K, m1 = 0.016 | 1001.82
283.15 K, m1 = 0.0281 | 1003.24
283.15 K, m1 = 0.0521 | 1005.92
283.15 K, m1 = 0.0995 | 1011.1
283.15 K, m1 = 0.1996 | 1021.72
283.15 K, m1 = 0.3045 | 1032.35
283.15 K, m1 = 0.4021 | 1041.79
283.15 K, m1 = 0.5059 | 1051.34
283.15 K, m1 = 0.5991 | 1059.68
283.15 K, m1 = 0.7147 | 1069.65
288.15 K, m1 = 0.0016 | 999.46
288.15 K, m1 = 0.0033 | 999.69
288.15 K, m1 = 0.0065 | 1000.09
288.15 K, m1 = 0.016 | 1001.21
288.15 K, m1 = 0.0281 | 1002.6
288.15 K, m1 = 0.0521 | 1005.25
288.15 K, m1 = 0.0995 | 1010.37
288.15 K, m1 = 0.1996 | 1020.89
288.15 K, m1 = 0.3045 | 1031.43
288.15 K, m1 = 0.4021 | 1040.77
288.15 K, m1 = 0.5059 | 1050.24
288.15 K, m1 = 0.5991 | 1058.5
288.15 K, m1 = 0.7147 | 1068.38
293.15 K, m1 = 0.0016 | 998.56
293.15 K, m1 = 0.0033 | 998.78
293.15 K, m1 = 0.0065 | 999.18
293.15 K, m1 = 0.016 | 1000.27
293.15 K, m1 = 0.0281 | 1001.67
293.15 K, m1 = 0.0521 | 1004.3
293.15 K, m1 = 0.0995 | 1009.39
293.15 K, m1 = 0.1996 | 1019.81
293.15 K, m1 = 0.3045 | 1030.26
293.15 K, m1 = 0.4021 | 1039.52
293.15 K, m1 = 0.5059 | 1048.92
293.15 K, m1 = 0.5991 | 1057.11
293.15 K, m1 = 0.7147 | 1066.89
298.15 K, m1 = 0.0016 | 997.37
298.15 K, m1 = 0.0033 | 997.6
298.15 K, m1 = 0.0065 | 997.99
298.15 K, m1 = 0.016 | 999.09
298.15 K, m1 = 0.0281 | 1000.46
298.15 K, m1 = 0.0521 | 1003.09
298.15 K, m1 = 0.0995 | 1008.13
298.15 K, m1 = 0.1996 | 1018.48
298.15 K, m1 = 0.3045 | 1028.85
298.15 K, m1 = 0.4021 | 1038.07
298.15 K, m1 = 0.5059 | 1047.37
298.15 K, m1 = 0.5991 | 1055.51
298.15 K, m1 = 0.7147 | 1065.25
303.15 K, m1 = 0.0016 | 996
303.15 K, m1 = 0.0033 | 996.22
303.15 K, m1 = 0.0065 | 996.61
303.15 K, m1 = 0.016 | 997.67
303.15 K, m1 = 0.0281 | 999.04
303.15 K, m1 = 0.0521 | 1001.64
303.15 K, m1 = 0.0995 | 1006.64
303.15 K, m1 = 0.1996 | 1016.92
303.15 K, m1 = 0.3045 | 1027.23
303.15 K, m1 = 0.4021 | 1036.37
303.15 K, m1 = 0.5059 | 1045.62
303.15 K, m1 = 0.5991 | 1053.7
303.15 K, m1 = 0.7147 | 1063.36
308.15 K, m1 = 0.0016 | 994.37
308.15 K, m1 = 0.0033 | 994.59
308.15 K, m1 = 0.0065 | 994.98
308.15 K, m1 = 0.016 | 996.04
308.15 K, m1 = 0.0281 | 997.4
308.15 K, m1 = 0.0521 | 999.99
308.15 K, m1 = 0.0995 | 1004.96
308.15 K, m1 = 0.1996 | 1015.17
308.15 K, m1 = 0.3045 | 1025.41
308.15 K, m1 = 0.4021 | 1034.51
308.15 K, m1 = 0.5059 | 1043.7
308.15 K, m1 = 0.5991 | 1051.73
308.15 K, m1 = 0.7147 | 1061.35
313.15 K, m1 = 0.0016 | 992.55
313.15 K, m1 = 0.0033 | 992.76
313.15 K, m1 = 0.0065 | 993.14
313.15 K, m1 = 0.016 | 994.21
313.15 K, m1 = 0.0281 | 995.56
313.15 K, m1 = 0.0521 | 998.12
313.15 K, m1 = 0.0995 | 1003.06
313.15 K, m1 = 0.1996 | 1013.23
313.15 K, m1 = 0.3045 | 1023.41
313.15 K, m1 = 0.4021 | 1032.44
313.15 K, m1 = 0.5059 | 1041.59
313.15 K, m1 = 0.5991 | 1049.59
313.15 K, m1 = 0.7147 | 1059.14
318.15 K, m1 = 0.0016 | 990.54
318.15 K, m1 = 0.0033 | 990.75
318.15 K, m1 = 0.0065 | 991.13
318.15 K, m1 = 0.016 | 992.2
318.15 K, m1 = 0.0281 | 993.53
318.15 K, m1 = 0.0521 | 996.09
318.15 K, m1 = 0.0995 | 1001
318.15 K, m1 = 0.1996 | 1011.1
318.15 K, m1 = 0.3045 | 1021.23
318.15 K, m1 = 0.4021 | 1030.23
318.15 K, m1 = 0.5059 | 1039.33
318.15 K, m1 = 0.5991 | 1047.3
318.15 K, m1 = 0.7147 | 1056.79
323.15 K, m1 = 0.0016 | 988.37
323.15 K, m1 = 0.0033 | 988.56
323.15 K, m1 = 0.0065 | 988.95
323.15 K, m1 = 0.016 | 990
323.15 K, m1 = 0.0281 | 991.34
323.15 K, m1 = 0.0521 | 993.87
323.15 K, m1 = 0.0995 | 998.76
323.15 K, m1 = 0.1996 | 1008.81
323.15 K, m1 = 0.3045 | 1018.9
323.15 K, m1 = 0.4021 | 1027.86
323.15 K, m1 = 0.5059 | 1036.92
323.15 K, m1 = 0.5991 | 1044.84
323.15 K, m1 = 0.7147 | 1054.31
328.15 K, m1 = 0.0016 | 986.02
328.15 K, m1 = 0.0033 | 986.21
328.15 K, m1 = 0.0065 | 986.59
328.15 K, m1 = 0.016 | 987.65
328.15 K, m1 = 0.0281 | 988.97
328.15 K, m1 = 0.0521 | 991.49
328.15 K, m1 = 0.0995 | 996.36
328.15 K, m1 = 0.1996 | 1006.37
328.15 K, m1 = 0.3045 | 1016.42
328.15 K, m1 = 0.4021 | 1025.32
328.15 K, m1 = 0.5059 | 1034.36
328.15 K, m1 = 0.5991 | 1042.24
328.15 K, m1 = 0.7147 | 1051.67
333.15 K, m1 = 0.0016 | 983.53
333.15 K, m1 = 0.0033 | 983.72
333.15 K, m1 = 0.0065 | 984.09
333.15 K, m1 = 0.016 | 985.14
333.15 K, m1 = 0.0281 | 986.48
333.15 K, m1 = 0.0521 | 988.97
333.15 K, m1 = 0.0995 | 993.82
333.15 K, m1 = 0.1996 | 1003.79
333.15 K, m1 = 0.3045 | 1013.8
333.15 K, m1 = 0.4021 | 1022.68
333.15 K, m1 = 0.5059 | 1031.67
333.15 K, m1 = 0.5991 | 1039.53
333.15 K, m1 = 0.7147 | 1048.93
338.15 K, m1 = 0.0016 | 980.88
338.15 K, m1 = 0.0033 | 981.06
338.15 K, m1 = 0.0065 | 981.45
338.15 K, m1 = 0.016 | 982.49
338.15 K, m1 = 0.0281 | 983.81
338.15 K, m1 = 0.0521 | 986.3
338.15 K, m1 = 0.0995 | 991.13
338.15 K, m1 = 0.1996 | 1001.06
338.15 K, m1 = 0.3045 | 1011.04
338.15 K, m1 = 0.4021 | 1019.88
338.15 K, m1 = 0.5059 | 1028.85
338.15 K, m1 = 0.5991 | 1036.68
338.15 K, m1 = 0.7147 | 1046.04
343.15 K, m1 = 0.0016 | 978.11
343.15 K, m1 = 0.0033 | 978.27
343.15 K, m1 = 0.0065 | 978.67
343.15 K, m1 = 0.016 | 979.71
343.15 K, m1 = 0.0281 | 981.02
343.15 K, m1 = 0.0521 | 983.51
343.15 K, m1 = 0.0995 | 988.33
343.15 K, m1 = 0.1996 | 998.2
343.15 K, m1 = 0.3045 | 1008.14
343.15 K, m1 = 0.4021 | 1017.05
343.15 K, m1 = 0.5059 | 1025.9
343.15 K, m1 = 0.5991 | 1033.73
343.15 K, m1 = 0.7147 | 1043.05
